Measurements from PubChem BioAssay (NCI).
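Following 48 hours of exposure in 96-well plates, responses at five concentrations were used to interpolate endpoints linearly. TGI: total growth inhibition.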

What was measured:
Test in all cases: NCI-60 cell line screen, 48 h
786-0 renal = test system: 786-0 renal
A498 renal = test system: A498 renal
A549 NSCLC = test system: A549 NSCLC
ACHN renal = test system: ACHN renal
BT-549 breast = test system: BT-549 breast
CAKI-1 renal = test system: CAKI-1 renal
CCRF-CEM leukemia = test system: CCRF-CEM leukemia
COLO 205 colon = test system: COLO 205 colon
EKVX NSCLC = test system: EKVX NSCLC
HCC-2998 colon = test system: HCC-2998 colon
HCT-116 colon = test system: HCT-116 colon
HCT-15 colon = test system: HCT-15 colon
HL-60(TB) leukemia = test system: HL-60(TB) leukemia
HOP-62 NSCLC = test system: HOP-62 NSCLC
HOP-92 NSCLC = test system: HOP-92 NSCLC
HS 578T breast = test system: HS 578T breast
HT29 colon = test system: HT29 colon
IGROV1 ovarian = test system: IGROV1 ovarian
K-562 leukemia = test system: K-562 leukemia
KM12 colon = test system: KM12 colon
LOX IMVI melanoma = test system: LOX IMVI melanoma
M14 melanoma = test system: M14 melanoma
MALME-3M melanoma = test system: MALME-3M melanoma
MCF7 breast = test system: MCF7 breast
MDA-MB-231 breast = test system: MDA-MB-231 breast
MDA-MB-435 = test system: MDA-MB-435
MDA-N = test system: MDA-N
MOLT-4 leukemia = test system: MOLT-4 leukemia
NCI-H226 lung = test system: NCI-H226 lung
NCI-H23 lung = test system: NCI-H23 lung
NCI-H460 lung = test system: NCI-H460 lung
NCI-H522 lung = test system: NCI-H522 lung
NCI/ADR-RES ovarian = test system: NCI/ADR-RES ovarian
OVCAR-3 ovarian = test system: OVCAR-3 ovarian
OVCAR-4 ovarian = test system: OVCAR-4 ovarian
OVCAR-5 ovarian = test system: OVCAR-5 ovarian
OVCAR-8 ovarian = test system: OVCAR-8 ovarian
PC-3 prostate = test system: PC-3 prostate
RPMI-8226 leukemia = test system: RPMI-8226 leukemia
RXF 393 renal = test system: RXF 393 renal
SF-268 CNS = test system: SF-268 CNS
SF-295 CNS = test system: SF-295 CNS
SF-539 CNS = test system: SF-539 CNS
SK-MEL-2 melanoma = test system: SK-MEL-2 melanoma
SK-MEL-28 melanoma = test system: SK-MEL-28 melanoma
SK-MEL-5 melanoma = test system: SK-MEL-5 melanoma
SK-OV-3 ovarian = test system: SK-OV-3 ovarian
SN12C renal = test system: SN12C renal
SNB-19 CNS = test system: SNB-19 CNS
SNB-75 CNS = test system: SNB-75 CNS
SR leukemia = test system: SR leukemia
SW-620 colon = test system: SW-620 colon
T-47D breast = test system: T-47D breast
TK-10 renal = test system: TK-10 renal
U251 CNS = test system: U251 CNS
UACC-257 melanoma = test system: UACC-257 melanoma
UACC-62 melanoma = test system: UACC-62 melanoma
UO-31 renal = test system: UO-31 renal
DU-145 prostate = test system: DU-145 prostate

## Cc1ccc(/C=C/C(=N/NC(=O)N/N=C(/C=C/c2ccc(C)cc2)C(C)(C)CN2CCCCC2)C(C)(C)CN2CCCCC2)cc1
786-0 renal
  TGI: 2.68 µM
A498 renal
  TGI: 3.12 µM
A549 NSCLC
  TGI: 3.02 µM
ACHN renal
  TGI: 4.23 µM
BT-549 breast
  TGI: 4.21 µM
CAKI-1 renal
  TGI: 5.56 µM
CCRF-CEM leukemia
  TGI: 3.08 µM
COLO 205 colon
  TGI: 3.07 µM
EKVX NSCLC
  TGI: 6.69 µM
HCC-2998 colon
  TGI: 3.21 µM
HCT-116 colon
  TGI: 2.64 µM
HCT-15 colon
  TGI: 3.25 µM
HL-60(TB) leukemia
  TGI: 3.35 µM
HOP-62 NSCLC
  TGI: 3.08 µM
HOP-92 NSCLC
  TGI: 3.44 µM
HS 578T breast
  TGI: 3.29 µM
HT29 colon
  TGI: 2.16 µM
IGROV1 ovarian
  TGI: 3.71 µM
K-562 leukemia
  TGI: 1.68 µM
KM12 colon
  TGI: 3.01 µM
LOX IMVI melanoma
  TGI: 2.64 µM
M14 melanoma
  TGI: 1.8 µM
MALME-3M melanoma
  TGI: 3.07 µM
MCF7 breast
  TGI: 2.83 µM
MDA-MB-231 breast
  TGI: 3.22 µM
MDA-MB-435
  TGI: 2.76 µM
MDA-N
  TGI: 2.88 µM
MOLT-4 leukemia
  TGI: 0.345 µM
NCI-H226 lung
  TGI: 4.51 µM
NCI-H23 lung
  TGI: 4.82 µM
NCI-H460 lung
  TGI: 3.08 µM
NCI-H522 lung
  TGI: 3.04 µM
NCI/ADR-RES ovarian
  TGI: 3.08 µM
OVCAR-3 ovarian
  TGI: 3.07 µM
OVCAR-4 ovarian
  TGI: 4.26 µM
OVCAR-5 ovarian
  TGI: 4.98 µM
OVCAR-8 ovarian
  TGI: 2.88 µM
PC-3 prostate
  TGI: 3.52 µM
RPMI-8226 leukemia
  TGI: 0.897 µM
RXF 393 renal
  TGI: 2.68 µM
SF-268 CNS
  TGI: 4.64 µM
SF-295 CNS
  TGI: 3.13 µM
SF-539 CNS
  TGI: 3.24 µM
SK-MEL-2 melanoma
  TGI: 3.44 µM
SK-MEL-28 melanoma
  TGI: 3.18 µM
SK-MEL-5 melanoma
  TGI: 3.08 µM
SK-OV-3 ovarian
  TGI: 3.32 µM
SN12C renal
  TGI: 3.27 µM
SNB-19 CNS
  TGI: 4.4 µM
SNB-75 CNS
  TGI: 3.08 µM
SR leukemia
  TGI: 0.359 µM
SW-620 colon
  TGI: 3.35 µM
T-47D breast
  TGI: 4.02 µM
TK-10 renal
  TGI: 3.26 µM
U251 CNS
  TGI: 2.82 µM
UACC-257 melanoma
  TGI: 3.1 µM
UACC-62 melanoma
  TGI: 4.02 µM
UO-31 renal
  TGI: 2.28 µM

## CCCCCCCN1C(=O)C(O)(c2ccc(C3(O)C(=O)N(CCCCCCC)c4ccccc43)s2)c2ccccc21 (stereo not given)
786-0 renal
  TGI: 3.61 µM
ACHN renal
  TGI: 4.92 µM
BT-549 breast
  TGI: 4.12 µM
CCRF-CEM leukemia
  TGI: 27 µM
COLO 205 colon
  TGI: 3.21 µM
DU-145 prostate
  TGI: 3.29 µM
HCC-2998 colon
  TGI: 3.44 µM
HCT-116 colon
  TGI: 3.18 µM
HCT-15 colon
  TGI: 4.42 µM
HL-60(TB) leukemia
  TGI: 3.42 µM
HOP-62 NSCLC
  TGI: 3.41 µM
HOP-92 NSCLC
  TGI: 3.55 µM
HS 578T breast
  TGI: 5.31 µM
HT29 colon
  TGI: 3.28 µM
IGROV1 ovarian
  TGI: 4.28 µM
K-562 leukemia
  TGI: 7.67 µM
KM12 colon
  TGI: 3.36 µM
LOX IMVI melanoma
  TGI: 3.51 µM
M14 melanoma
  TGI: 3.69 µM
MCF7 breast
  TGI: 5.7 µM
MDA-MB-231 breast
  TGI: 4.12 µM
MDA-MB-435
  TGI: 3.87 µM
MDA-N
  TGI: 4.06 µM
MOLT-4 leukemia
  TGI: 4.16 µM
NCI-H460 lung
  TGI: 3.49 µM
OVCAR-4 ovarian
  TGI: 3.77 µM
OVCAR-5 ovarian
  TGI: 3.24 µM
OVCAR-8 ovarian
  TGI: 4.41 µM
PC-3 prostate
  TGI: 3.8 µM
RPMI-8226 leukemia
  TGI: 4.69 µM
SF-268 CNS
  TGI: 3.97 µM
SF-295 CNS
  TGI: 3.42 µM
SF-539 CNS
  TGI: 3.34 µM
SK-MEL-2 melanoma
  TGI: 2.93 µM
SK-MEL-28 melanoma
  TGI: 3.98 µM
SK-MEL-5 melanoma
  TGI: 3.26 µM
SK-OV-3 ovarian
  TGI: 2.2 µM
SN12C renal
  TGI: 3.42 µM
SNB-19 CNS
  TGI: 8.7 µM
SNB-75 CNS
  TGI: 17.3 µM
SR leukemia
  TGI: 18.4 µM
SW-620 colon
  TGI: 4.55 µM
T-47D breast
  TGI: 15 µM
TK-10 renal
  TGI: 5.67 µM
U251 CNS
  TGI: 3.17 µM
UACC-257 melanoma
  TGI: 4.42 µM
UACC-62 melanoma
  TGI: 4.06 µM
UO-31 renal
  TGI: 3.14 µM

## O=C1c2scc(-c3ccc(Cl)cc3)c2-n2cccc21
A498 renal
  TGI: 2.78 µM
A549 NSCLC
  TGI: > 100 µM
ACHN renal
  TGI: > 100 µM
CCRF-CEM leukemia
  TGI: > 100 µM
COLO 205 colon
  TGI: > 100 µM
DU-145 prostate
  TGI: > 100 µM
EKVX NSCLC
  TGI: > 100 µM
HCC-2998 colon
  TGI: > 100 µM
IGROV1 ovarian
  TGI: > 100 µM
K-562 leukemia
  TGI: > 100 µM
KM12 colon
  TGI: > 100 µM
LOX IMVI melanoma
  TGI: > 100 µM
M14 melanoma
  TGI: > 100 µM
MALME-3M melanoma
  TGI: > 100 µM
MDA-MB-231 breast
  TGI: > 100 µM
MDA-MB-435
  TGI: > 100 µM
MDA-N
  TGI: > 100 µM
MOLT-4 leukemia
  TGI: > 100 µM
NCI-H460 lung
  TGI: > 100 µM
NCI-H522 lung
  TGI: > 100 µM
OVCAR-3 ovarian
  TGI: > 100 µM
OVCAR-5 ovarian
  TGI: > 100 µM
PC-3 prostate
  TGI: > 100 µM
RPMI-8226 leukemia
  TGI: > 100 µM
RXF 393 renal
  TGI: > 100 µM
SF-295 CNS
  TGI: > 100 µM
SK-MEL-2 melanoma
  TGI: > 100 µM
SK-MEL-28 melanoma
  TGI: > 100 µM
SK-MEL-5 melanoma
  TGI: > 100 µM
SK-OV-3 ovarian
  TGI: > 100 µM
SNB-75 CNS
  TGI: > 100 µM
SR leukemia
  TGI: 13.7 µM
SW-620 colon
  TGI: > 100 µM
T-47D breast
  TGI: > 100 µM
UACC-257 melanoma
  TGI: > 100 µM
UACC-62 melanoma
  TGI: > 100 µM

## Cc1ccc(S(=O)(=O)Oc2nc3ccccc3nc2N(S(=O)(=O)c2ccc(C)cc2)S(=O)(=O)c2ccc(C)cc2)cc1
786-0 renal
  TGI: > 100 µM
A498 renal
  TGI: > 100 µM
A549 NSCLC
  TGI: > 100 µM
ACHN renal
  TGI: > 100 µM
BT-549 breast
  TGI: > 100 µM
CAKI-1 renal
  TGI: > 100 µM
CCRF-CEM leukemia
  TGI: > 100 µM
COLO 205 colon
  TGI: > 100 µM
DU-145 prostate
  TGI: > 100 µM
EKVX NSCLC
  TGI: > 100 µM
HCC-2998 colon
  TGI: > 100 µM
HCT-116 colon
  TGI: > 100 µM
HCT-15 colon
  TGI: > 100 µM
HL-60(TB) leukemia
  TGI: > 100 µM
HS 578T breast
  TGI: > 100 µM
HT29 colon
  TGI: > 100 µM
IGROV1 ovarian
  TGI: > 100 µM
KM12 colon
  TGI: > 100 µM
LOX IMVI melanoma
  TGI: > 100 µM
M14 melanoma
  TGI: > 100 µM
MALME-3M melanoma
  TGI: > 100 µM
MCF7 breast
  TGI: > 100 µM
MDA-MB-231 breast
  TGI: > 100 µM
MDA-MB-435
  TGI: > 100 µM
MDA-N
  TGI: > 100 µM
MOLT-4 leukemia
  TGI: > 100 µM
NCI-H226 lung
  TGI: > 100 µM
NCI-H23 lung
  TGI: > 100 µM
NCI-H460 lung
  TGI: > 100 µM
NCI-H522 lung
  TGI: > 100 µM
NCI/ADR-RES ovarian
  TGI: > 100 µM
OVCAR-3 ovarian
  TGI: > 100 µM
OVCAR-5 ovarian
  TGI: > 100 µM
OVCAR-8 ovarian
  TGI: > 100 µM
PC-3 prostate
  TGI: > 100 µM
RPMI-8226 leukemia
  TGI: > 100 µM
RXF 393 renal
  TGI: > 100 µM
SF-268 CNS
  TGI: > 100 µM
SF-295 CNS
  TGI: > 100 µM
SF-539 CNS
  TGI: > 100 µM
SK-MEL-2 melanoma
  TGI: > 100 µM
SK-MEL-28 melanoma
  TGI: > 100 µM
SK-MEL-5 melanoma
  TGI: > 100 µM
SK-OV-3 ovarian
  TGI: > 100 µM
SN12C renal
  TGI: > 100 µM
SNB-19 CNS
  TGI: > 100 µM
SNB-75 CNS
  TGI: > 100 µM
SW-620 colon
  TGI: > 100 µM
TK-10 renal
  TGI: > 100 µM
U251 CNS
  TGI: > 100 µM
UACC-257 melanoma
  TGI: > 100 µM
UACC-62 melanoma
  TGI: > 100 µM
UO-31 renal
  TGI: > 100 µM
